Assay [1] concerns the target T1, Serine/threonine-protein kinase Sgk1 (Homo sapiens) (UniProt O00141).
T1 sequence (whole entry): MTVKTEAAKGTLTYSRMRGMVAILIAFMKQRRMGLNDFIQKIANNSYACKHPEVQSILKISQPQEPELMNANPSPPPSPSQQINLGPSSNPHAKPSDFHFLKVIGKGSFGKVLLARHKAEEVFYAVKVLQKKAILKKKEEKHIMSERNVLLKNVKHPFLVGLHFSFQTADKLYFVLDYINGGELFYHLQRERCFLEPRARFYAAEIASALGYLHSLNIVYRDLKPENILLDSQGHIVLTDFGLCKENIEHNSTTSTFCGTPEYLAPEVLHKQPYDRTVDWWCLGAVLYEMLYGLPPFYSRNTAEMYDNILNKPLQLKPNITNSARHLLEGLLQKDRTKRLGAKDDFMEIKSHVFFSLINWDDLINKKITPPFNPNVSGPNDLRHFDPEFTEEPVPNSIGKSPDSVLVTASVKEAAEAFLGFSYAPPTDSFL
The experiment in a line: Inhibition of human truncated SGK1 expressed in baculovirus assessed as substrate phosphorylation using fluorescence-labelled peptides as substrate at 420 uM after 90 mins by microfluidic peptide phosphorylation assay.

Assay [2] has as its system Fibroblast growth factor receptor 2 (Homo sapiens), P21802 [N549H]. Kind of assay: Inhibition of human FGFR2 N549H mutant catalytic domain expressed in baculovirus assessed as substrate phosphorylation using fluorescence-labelled peptides as substrate at 420 uM after 90 mins by microfluidic peptide phosphorylation assay.
The target of assay [3] is Tyrosine-protein kinase Lyn (Homo sapiens) (UniProt P07948). The experiment in a line: Inhibition of human full length LYN expressed in baculovirus assessed as substrate phosphorylation using fluorescence-labelled peptides as substrate at 420 uM after 90 mins by microfluidic peptide phosphorylation assay.
Assay [4] concerns the target T2, MAP kinase-activated protein kinase 5 (Homo sapiens) (UniProt Q8IW41).
T2 sequence (whole entry): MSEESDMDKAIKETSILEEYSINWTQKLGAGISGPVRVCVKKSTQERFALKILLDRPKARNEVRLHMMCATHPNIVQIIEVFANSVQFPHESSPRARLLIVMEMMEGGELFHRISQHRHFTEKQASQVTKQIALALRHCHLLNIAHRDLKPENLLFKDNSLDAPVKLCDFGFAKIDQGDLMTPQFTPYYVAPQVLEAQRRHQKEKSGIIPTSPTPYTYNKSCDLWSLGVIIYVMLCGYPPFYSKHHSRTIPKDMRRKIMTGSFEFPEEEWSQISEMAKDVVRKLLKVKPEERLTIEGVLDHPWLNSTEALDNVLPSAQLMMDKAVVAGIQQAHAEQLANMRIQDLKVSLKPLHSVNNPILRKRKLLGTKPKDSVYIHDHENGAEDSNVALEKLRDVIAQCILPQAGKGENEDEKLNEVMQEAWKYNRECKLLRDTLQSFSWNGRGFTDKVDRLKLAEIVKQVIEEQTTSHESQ
The experiment in a line: Inhibition of human full length PRAK expressed in baculovirus assessed as substrate phosphorylation using fluorescence-labelled peptides as substrate at 0.1 uM after 90 mins by microfluidic peptide phosphorylation assay.

Assay [5] deals with Cyclin-dependent kinase 2 (Homo sapiens) (UniProt P24941). Kind of assay: Inhibition of human full length CDK2 expressed in baculovirus assessed as substrate phosphorylation using fluorescence-labelled peptides as substrate at 0.06 uM after 90 mins by microfluidic peptide phosphorylation assay.
Assay [6] deals with Tyrosine-protein kinase Lyn (Homo sapiens) (UniProt P07948). The experiment in a line: Inhibition of human full length LYN expressed in baculovirus assessed as substrate phosphorylation using fluorescence-labelled peptides as substrate at 0.06 uM after 90 mins by microfluidic peptide phosphorylation assay.
Assay [7] concerns the target T3, Protein kinase C epsilon type (Homo sapiens) (UniProt Q02156).
T3 sequence (whole entry): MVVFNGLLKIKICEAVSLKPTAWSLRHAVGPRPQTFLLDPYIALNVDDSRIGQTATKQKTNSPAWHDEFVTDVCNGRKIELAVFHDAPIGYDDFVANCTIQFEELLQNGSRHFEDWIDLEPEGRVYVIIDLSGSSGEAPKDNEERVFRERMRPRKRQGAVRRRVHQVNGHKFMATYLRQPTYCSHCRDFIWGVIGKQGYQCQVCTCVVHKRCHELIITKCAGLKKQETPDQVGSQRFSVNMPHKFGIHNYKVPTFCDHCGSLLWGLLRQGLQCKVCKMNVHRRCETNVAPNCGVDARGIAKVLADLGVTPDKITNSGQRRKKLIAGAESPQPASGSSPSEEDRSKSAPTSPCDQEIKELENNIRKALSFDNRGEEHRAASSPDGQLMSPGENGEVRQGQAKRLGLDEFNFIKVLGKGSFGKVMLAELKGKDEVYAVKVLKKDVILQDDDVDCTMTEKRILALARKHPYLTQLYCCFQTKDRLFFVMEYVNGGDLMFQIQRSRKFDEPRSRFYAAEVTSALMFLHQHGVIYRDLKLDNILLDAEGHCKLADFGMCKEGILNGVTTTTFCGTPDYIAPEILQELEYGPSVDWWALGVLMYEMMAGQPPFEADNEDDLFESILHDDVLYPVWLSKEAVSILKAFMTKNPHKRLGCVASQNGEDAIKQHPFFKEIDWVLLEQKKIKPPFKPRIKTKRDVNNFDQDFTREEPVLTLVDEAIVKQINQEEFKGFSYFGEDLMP
Kind of assay: Inhibition of human truncated PKC epsilon expressed in baculovirus assessed as substrate phosphorylation using fluorescence-labelled peptides as substrate at 0.2 uM after 90 mins by microfluidic peptide phosphorylation assay.

The target in assay [8] is T4, Protein kinase C zeta type (Homo sapiens) (UniProt Q05513).
T4 sequence (whole entry): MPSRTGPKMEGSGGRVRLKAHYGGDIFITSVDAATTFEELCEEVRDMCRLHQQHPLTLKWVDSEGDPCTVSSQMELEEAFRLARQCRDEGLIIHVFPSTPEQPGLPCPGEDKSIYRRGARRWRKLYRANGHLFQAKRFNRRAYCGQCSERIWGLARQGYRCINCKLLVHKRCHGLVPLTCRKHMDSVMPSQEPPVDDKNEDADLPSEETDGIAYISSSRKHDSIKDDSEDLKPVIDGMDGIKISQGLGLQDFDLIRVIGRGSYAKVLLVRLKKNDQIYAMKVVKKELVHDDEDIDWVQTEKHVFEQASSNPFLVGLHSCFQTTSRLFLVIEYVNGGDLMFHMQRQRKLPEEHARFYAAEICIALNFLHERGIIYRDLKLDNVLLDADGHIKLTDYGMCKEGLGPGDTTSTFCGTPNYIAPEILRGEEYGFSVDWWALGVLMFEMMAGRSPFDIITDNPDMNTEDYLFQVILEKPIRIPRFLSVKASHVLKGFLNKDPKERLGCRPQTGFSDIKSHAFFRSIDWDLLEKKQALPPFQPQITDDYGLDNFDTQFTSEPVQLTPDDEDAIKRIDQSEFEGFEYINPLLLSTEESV
Kind of assay: Inhibition of human full length PKC zeta expressed in baculovirus assessed as substrate phosphorylation using fluorescence-labelled peptides as substrate at 95 uM after 90 mins by microfluidic peptide phosphorylation assay.

In assay [9] the target is RAC-alpha serine/threonine-protein kinase (Homo sapiens) (UniProt P31749). The note with it: 1000 uM.
RAC-alpha serine/threonine-protein kinase (Homo sapiens), sequence (P31749 whole entry): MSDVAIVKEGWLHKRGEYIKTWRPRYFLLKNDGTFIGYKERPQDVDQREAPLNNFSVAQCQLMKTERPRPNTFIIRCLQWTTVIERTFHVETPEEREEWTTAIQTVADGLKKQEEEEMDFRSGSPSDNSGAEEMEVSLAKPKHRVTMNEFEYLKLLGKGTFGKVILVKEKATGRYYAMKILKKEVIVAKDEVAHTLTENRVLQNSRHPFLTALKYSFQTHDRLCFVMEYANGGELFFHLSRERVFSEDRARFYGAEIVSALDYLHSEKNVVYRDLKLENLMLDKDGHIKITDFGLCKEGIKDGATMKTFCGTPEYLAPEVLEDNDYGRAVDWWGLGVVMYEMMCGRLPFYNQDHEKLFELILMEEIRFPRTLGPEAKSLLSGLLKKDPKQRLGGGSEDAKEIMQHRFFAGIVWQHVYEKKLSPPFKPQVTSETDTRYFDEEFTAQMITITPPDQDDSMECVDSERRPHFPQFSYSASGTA
Description: Inhibition of human AKT1 catalytic domain expressed in baculovirus assessed as substrate phosphorylation using fluorescence-labelled peptides as substrate at 1000 uM after 90 mins by microfluidic peptide phosphorylation assay

Tyrosine-protein kinase Lyn (Homo sapiens), sequence (P07948 2-512 limits assumed): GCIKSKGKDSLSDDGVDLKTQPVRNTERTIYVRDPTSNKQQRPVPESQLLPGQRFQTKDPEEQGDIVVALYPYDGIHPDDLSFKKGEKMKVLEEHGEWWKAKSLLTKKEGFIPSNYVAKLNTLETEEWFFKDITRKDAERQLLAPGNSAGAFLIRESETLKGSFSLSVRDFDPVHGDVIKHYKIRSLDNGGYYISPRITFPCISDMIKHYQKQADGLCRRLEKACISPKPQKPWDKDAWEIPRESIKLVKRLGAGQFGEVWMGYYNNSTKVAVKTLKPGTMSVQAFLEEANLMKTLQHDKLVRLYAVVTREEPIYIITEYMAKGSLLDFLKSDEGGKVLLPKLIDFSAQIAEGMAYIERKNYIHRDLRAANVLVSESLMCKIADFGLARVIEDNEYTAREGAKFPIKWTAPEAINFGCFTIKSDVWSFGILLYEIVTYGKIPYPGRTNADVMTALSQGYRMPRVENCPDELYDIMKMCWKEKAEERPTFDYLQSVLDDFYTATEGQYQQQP
Fibroblast growth factor receptor 2 (Homo sapiens), P21802 [N549H], sequence (P21802 whole entry N549H, the tested form may be a part): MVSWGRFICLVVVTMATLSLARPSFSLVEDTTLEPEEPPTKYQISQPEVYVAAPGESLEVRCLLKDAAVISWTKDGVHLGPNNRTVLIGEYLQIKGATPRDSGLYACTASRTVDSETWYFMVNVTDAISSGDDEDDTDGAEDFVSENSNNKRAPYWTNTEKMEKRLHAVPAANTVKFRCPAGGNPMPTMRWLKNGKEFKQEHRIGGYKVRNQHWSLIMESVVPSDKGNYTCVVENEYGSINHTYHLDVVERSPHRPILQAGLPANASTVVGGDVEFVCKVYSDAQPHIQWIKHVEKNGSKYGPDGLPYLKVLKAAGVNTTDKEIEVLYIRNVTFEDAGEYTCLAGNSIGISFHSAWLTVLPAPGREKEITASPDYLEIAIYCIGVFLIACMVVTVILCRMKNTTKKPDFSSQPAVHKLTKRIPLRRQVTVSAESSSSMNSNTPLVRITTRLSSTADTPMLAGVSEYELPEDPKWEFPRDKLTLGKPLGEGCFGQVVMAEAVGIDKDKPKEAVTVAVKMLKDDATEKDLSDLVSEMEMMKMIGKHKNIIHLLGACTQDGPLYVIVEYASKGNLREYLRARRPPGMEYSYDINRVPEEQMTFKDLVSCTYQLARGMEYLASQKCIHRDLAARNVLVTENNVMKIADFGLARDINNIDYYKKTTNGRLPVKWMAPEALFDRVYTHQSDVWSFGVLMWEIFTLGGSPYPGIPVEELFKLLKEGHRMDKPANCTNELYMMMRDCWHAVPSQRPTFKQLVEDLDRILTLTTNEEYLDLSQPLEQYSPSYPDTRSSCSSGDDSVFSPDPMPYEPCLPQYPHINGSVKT

Usually inhibition stands for the change of the read-out against control, counted positive when it falls. Turning to `c1nc(N2CCOCC2)c2nc[nH]c2n1`, the inhibition in assay [1] amounted to 83.5%; in assay [2] it was 89.5%; in assay [3], 68%. Take `C[C@H](CN(C)C)Oc1nc(Nc2cc3cccc(Cl)c3cn2)cnc1C#N`: in assay [4], the inhibition was determined as 3.5%. Take `NC1(Cc2ccc(Cl)cc2)CCN(c2ncnc3[nH]ccc23)CC1`: the values for the inhibition in assay [5] and in assay [6] were 1% and 0%, respectively. Regarding `Clc1ccc(C2(c3ccc(-c4ncnc5[nH]cnc45)cc3)CCNCC2)cc1`, the inhibition in assay [7] stood at 46.5%. With `NCCc1ccc(-c2ncnc3[nH]cnc23)cc1`, the inhibition in assay [8] was determined as 0%. In the case of `c1cnc2[nH]ccc2c1`, in assay [9], the inhibition came out at 65.5%.
